{"source": "patent US20120053128A1", "about": "“Method of inhibiting angiogenesis” (XAVIER UNIVERSITY, priority 2010, published 2012)", "key": {"[1]": {"details": "human, human umbilical vein endothelial cells (HUVECs)", "quoted_text": "The HUVECs, as described above, were seeded in 96-well plates at about 10,000 cells per well. The next day, the cells were starved for 18 hours in EBM-2+1% FBS without any growth supplement. The HUVECs were then incubated with apoEdp in various concentrations in the range of about 6 μM to about 300 μM. An hour later, 50 ng/mL of vascular endothelial growth factor (VEGF) was introduced. The cells were incubated for two days, and cell numbers were determined using the CellTiter96 AQuous One Solution cell proliferation kit. (Promega, Madison, Wis.)"}, "[2]": {"test_system": "VEGF-induced angiogenesis", "assay": "Rabbit corneal micropocket assay of VEGF-induced angiogenesis", "type": "in vivo, New Zealand White Rabbits", "details": "rabbit eye, 1% apoEdp eye drops 50 μL topically five times per day for five days, versus saline drops", "protocol": "The effect of apoEdp on angiogenesis in vivo was observed by testing its inhibitory effect on VEGF-induced angiogenesis in a corneal micropocket assay of a rabbit eye model. A corneal micropocket was created with a modified von Graefe cataract knife in each eye of several 2-3 pound New Zealand White Rabbits. A micropellet of 500 μm by 500 μm was prepared which contained 0.4 g of Compritol 888 ATO (Gattefosse) combined with 0.1 g of Squalane oil (Sigma Aldrich) and 20 mg/mL L-α-Phosphatidylcholine. The 20 mg/mL L-α-Phosphatidylcholine contained either saline for the control subjects or 160 ng of VEGF for the test subjects. The right eye of each test subject was implanted with a VEGF-containing pellet and the left eye of each test subject was implanted with a saline-containing pellet. Each of the pellets was positioned about 2 mm from the corneal limbus. […] The area of neovascular response, vessel length and clock hours of new blood vessel formation of each group were all calculated according to the formula, Area (mm^2)=C/12×3.1416[r^2−(r−L)^2] where, C=the number of clock hours at the limbus involved in the neovascular response, L=the length of the longest neovascular pedicle from the limbus onto the anterior cornea, and r=the radius of the cornea."}, "c-Src": {"test_system": "c-Src", "assay": "Western blot, VEGF-induced phosphorylation of c-Src in HUVECs", "type": "cell-based, human", "details": "apoEdp about 6 to about 50 μM for 1 h, VEGF 10 ng/mL ten minutes, concentration dependent", "protocol": "(§1) The mechanism by which apoEdp inhibits angiogenesis and tumor growth was evaluated using Western Blot Analysis.\n(§2) Confluent HUVECs were grown in EBM-2 containing 1% FBS for twenty-four hours. The medium was then replaced with 1% FBS media in the presence or absence of apoEdp in the range of about 6 μM to about 50 μM. The cells were allowed to grow for one hour; then VEGF was added at a concentration of 10 ng/mL. The cells were then incubated for ten minutes to detect the phosphorylated forms of angiogenic signaling molecules.\n(§3) The cells were lysed, quantified for protein concentration, and separated on 4% to 20% pre-cast SDS-PAGE gels. Western blots were then performed of the control cell lysates and the apoEdp treated cell lysates. The western blots were performed with antibodies against the phosphorylated and non-phosphorylated (control) forms of Flk-1, c-Src, FAK, Erk1/2, Akt and eNOS. (Santa Cruz Biotechnology, Santa Cruz, Calif.)."}, "Flk-1": {"test_system": "Flk-1", "assay": "Western blot, VEGF-induced phosphorylation of Flk-1 in HUVECs", "type": "cell-based, human", "details": "apoEdp about 6 to about 50 μM for 1 h, VEGF 10 ng/mL ten minutes, concentration dependent", "protocol": "as §1, §2, §3"}, "FAK": {"test_system": "FAK", "assay": "Western blot, VEGF-induced phosphorylation of FAK in HUVECs", "type": "cell-based, human", "details": "apoEdp about 6 to about 50 μM for 1 h, VEGF 10 ng/mL ten minutes, concentration dependent", "protocol": "as §1, §2, §3"}, "[3]": {"test_system": "MDA-MB-231 human breast cancer cells xenograft", "type": "in vivo", "details": "nude mice, about 40 mg/kg/day intralesionally for three consecutive days, versus PBS", "protocol": "The effect of apoEdp on tumor growth in vivo was observed by testing its inhibitory effect on xenograft tumor growth post-injection in nude mice.\nThe test subjects were female nu/nu mice, aged 8-12 weeks, weighing about 20 g. (Charles River Laboratories, Harlan, Indianapolis, Ind.) The mice were weighed, coded, and divided into experimental groups at random. The mice were subcutaneously injected with about 3×10^6 MDA-MB-231 human breast cancer cells in 100 μL PBS. The cells were injected into the right sides of the dorsal area of the test subjects. The tumor size was allowed to reach about 100 mm^3 which took about ten days.\nFollowing injection of the tumor cells, the subjects were given injections for three consecutive days. About 40 mg/kg/day of apoEdp was injected intralesionally into the test subjects, and about […] of sterile PBS was injected intralesionally into the control subjects.\nIn order to evaluate tumor growth, tumor volume was determined every seven days by measuring the tumor with a digital caliper and calculating tumor volume. Volume was calculated using the formula, V=A×B^2×0.52, where A=longest diameter of the tumor, and B=the shortest diameter of the tumor."}, "Akt": {"test_system": "Akt", "assay": "Western blot, VEGF-induced phosphorylation of Akt in HUVECs", "type": "cell-based, human", "details": "apoEdp about 6 to about 50 μM for 1 h, VEGF 10 ng/mL ten minutes, concentration dependent", "protocol": "as §1, §2, §3"}, "[4]": {"test_system": "MDA-MB-231 human breast cancer cells", "assay": "MDA-MB-231 cell viability (CellTiter 96 AQuous One)", "type": "cell-based", "details": "MDA-MB-231 cells, apoEdp up to 300 μM", "protocol": "(§4) To determine whether apoEdp affects cell survival, cell viability of human umbilical vein endothelial cells (HUVECs) and MDA-MB-231 human breast cancer cells was determined by using CellTiter 96® AQuous One solution cell proliferation kit (Promega, Madison, Wis.).\n(§5) HUVECs were obtained from Lonza (Walkersville, Md.) and were maintained in endothelial cell basal medium (EBM-2) (Lonza, Walkersville, Md.) supplemented with 10% fetal bovine serum (FBS) and growth factors. (bullet kit, Lonza, Walkersville, Md.) HUVECs were used between passages 2-6. Human Breast Cancer cells MDA-MB-231 were obtained from the American Type Tissue Collection and cultured in Dulbecco's Modified Eagle's medium supplemented with 10% fetal bovine serum, 0.1 mg/mL streptomycin and 25 U/mL penicillin.\n(§6) The MDA-MB-231 cells were in 96-well plates at about 5,000 cells per well. The MDA-MB-231 cells were then allowed to adhere to the plate with apoEdp in various concentrations in the range of about 6 μM to about 300 μM. The cells were incubated for two days, and cell numbers were determined using the CellTiter 96® AQuous One Solution cell proliferation kit. (Promega, Madison, Wis.)"}, "[5]": {"assay": "MDA-MB-231 cell viability (CellTiter 96 AQuous One)", "type": "cell-based, human", "details": "human, MDA-MB-231 human breast cancer cells; MDA-MB-231 cells, incubated two days, apoEdp about 6 to about 300 μM; read-out: 50% cytotoxic dose", "protocol": "as §4, §5, §6"}, "Erk1/2": {"test_system": "Erk1/2", "assay": "Western blot, VEGF-induced phosphorylation of Erk1/2 in HUVECs", "type": "cell-based, human", "details": "apoEdp about 6 to about 50 μM for 1 h, VEGF 10 ng/mL ten minutes, concentration dependent", "protocol": "as §1, §2, §3"}, "eNOS": {"test_system": "eNOS", "assay": "Western blot, VEGF-induced phosphorylation of eNOS in HUVECs", "type": "cell-based, human", "details": "apoEdp about 6 to about 50 μM for 1 h, VEGF 10 ng/mL ten minutes, concentration dependent", "protocol": "as §1, §2, §3"}}, "note": "Where two headings read alike, the source gives them in different places. Where no end group is shown, it is not given here.", "data": [{"sequence": "LRKLRKRLLLRKLRKRLL [apoEdp]", "values": [{"measurement": "CC50 at 48 h", "setting": "[1]", "result": "~103", "unit": "µM"}, {"measurement": "VEGF-induced angiogenesis (area of neovascular response)", "setting": "[2]", "result": "significantly inhibited"}, {"measurement": "VEGF-induced phosphorylation of c-Src", "setting": "c-Src", "result": "significantly inhibited"}, {"measurement": "VEGF-induced phosphorylation of Flk-1", "setting": "Flk-1", "result": "significantly inhibited"}, {"measurement": "VEGF-induced phosphorylation of FAK", "setting": "FAK", "result": "significantly inhibited"}, {"measurement": "tumor growth (tumor volume)", "setting": "[3]", "result": "significantly inhibited"}, {"measurement": "VEGF-induced phosphorylation of Akt", "setting": "Akt", "result": "significantly inhibited"}, {"measurement": "effect on cell viability", "setting": "[4]", "result": "no effect on cell viability"}, {"measurement": "CC50 at 48 h", "setting": "[5]", "result": "> 300", "unit": "µM"}, {"measurement": "VEGF-induced phosphorylation of Erk1/2", "setting": "Erk1/2", "result": "significantly inhibited"}, {"measurement": "VEGF-induced phosphorylation of eNOS", "setting": "eNOS", "result": "significantly inhibited"}]}]}
